Patent US10207988B2, “Methods and compositions for treatment of cancer and autoimmune disease” (THE JACKSON LABORATORY, priority 2011, dated 2019)

How the values were obtained:
[1] = test system: normal C57BL/6J splenic B-cells (AID+/+) versus splenic B-cells from AID−/− mice; experiment: screening of DIDS derivatives, MultiTox-Fluor Multiplex Cytotoxicity Assay; type: cell-based, mouse; settings: 10, 50 or 150 μM, 4 days of stimulation with anti-CD40 plus IL-4
Procedure: To identify bioactive derivatives of DIDS, a library of 10^5 chemical variants of DIDS was generated by replacing the sulfonate or isothiocyanate group with other chemical entities, or by altering the double bond joining the two rings in the stilbene backbone. All compounds were resuspended in dimethyl sulfoxide (DMSO) at a stock concentration of […], and used by serial dilution to generate working concentrations of 10, 50, or 150 μM. These were individually pipetted into 96-well microtiter culture dishes in duplicate, generating two plates of 10 μM, two plates of 50 μM, and two plates of 150 μM compounds. In each set, one plate was seeded with 100,000 normal C57BL/6J splenic B-cells (AID+/+) isolated by magnetic bead based sorting to enrich for B220+ IgM+ B-cells; and one plate was seeded with 100,000 splenic B-cells from AID−/− mice identically isolated. Each culture was stimulated on day 0 by addition of 1 μg/ml anti-CD40 plus 25 ng/ml IL-4 to induce proliferation and class-switch recombination. After two days, each culture was re-stimulated by an additional 1 μg/ml anti-CD40 plus 25 ng/ml IL-4. After two additional days in culture, for a total of 4 days of stimulation, viable cell counts were determined in each well of each plate using the MultiTox-Fluor Multiplex Cytotoxicity Assay (Promega, Inc.). For viability measurements, 100 microliters of the 2× MultiTox-Fluor Multiplex Cytotoxicity Reagent was added to each well and mixed before incubating at 37° C. for 30 min. Plates were then transferred to a fluorescence-capable multiplate reader and analyzed using 400 nm excitation and detection of 505 nm emission to measure the fraction of remaining live cells. As controls, wells containing either vehicle alone (DMSO) or 150 μM DIDS were included on each plate. Viability scores for each compound were determined as the fraction of live cells in the normal B-cell plate divided by the fraction of live cells in the corresponding AID knockout plate. Compounds that produce normal/AID knockout ratios at or below the level of the DIDS ratio were considered candidate compounds for further validation and testing. […] The initial screen identified 10 derivatives, BB5-6, BB1-6, BB1-7, BB2-6, BB2-5, BB5-39, BB4B-2, BB5-4, BB5-47, and BB8-1 (FIG. 10).

[2] = test system: primary AID-knockout mouse splenocytes; experiment: viability of activated AID-null splenocytes treated with NS-123 (Trypan blue); type: cell-based
Procedure: Primary mouse B-cells were isolated from spleens of adult AID−/− mice as described in Example 1. Cultures were established at a concentration of 1×10^6 cells per ml in RPMI-1640 medium with 10% FBS. Cultures were activated with anti-CD40 antibody plus IL-4, and treated with 4′-Bromo-3′ nitropropiophenone (NS-123) (purchased from Calbiochem; CAS No. 101860-83-7) at concentrations of 0.5, 5, 50, or 500 μM. Cells were re-activated by anti-CD40 plus IL-4 after two days in culture. Cell counts were determined after 1, 2, 3, and 4 days in culture by Trypan blue staining. At the concentration of 50 μM and 500 μM of NS-123 AID-null splenocytes were not viable. At the concentration of 5 μM of NS-123 the viability of the splenocytes is reduced when compared to untreated splenocytes (FIG. 12).
Primary AID-knockout mouse splenocytes were seeded in cultures at day 0 at a concentration of 1×10^6 cells/ml in RPMI-1640 medium supplemented with anti-CD40 plus IL-4 to activate B-cells. Individual cultures were supplemented with 0, 5, 10, 20, 30, 40, or 50 μM NS-123 and viable cells were counted after Trypan blue staining on days 1, 2, 3, and 4 (FIG. 13).

[3] = test system: U251, HT-29 and A549 tumor cells; settings: cited from earlier work

SMILES | viability score: fraction of live cells AID+/+ divided by fraction of live cells AID−/− (hit: ratio less than 1) [1] | other results
CC(C)NC(=O)Nc1ccc(CCc2ccc(NC(=O)NC(C)C)cc2S(=O)(=O)[O-])c(S(=O)(=O)[O-])c1.[Na+].[Na+] [BB4B-2, sodium 6,6′-(ethane-1,2-diyl)bis(3-(3-isopropylureido)benzenesulfonate)] | identified | 
CN(C)c1ccc(/C=C/c2ccc(NS(=O)(=O)C3CC3)cc2)cc1 [BB2-5, (E)-N-(4-(4-(dimethylamino)styryl)phenyl)cyclopropanesulfonamide] | identified | 
CNC(=O)c1ccc(/C=C/c2ccc(C(=O)NC)cc2)cc1 [BB8-1, (E)-4,4′-(ethene-1,2-diyl)bis(N-methylbenzamide)] | identified | 
CC(=O)Nc1ccc(/C=C/c2ccc(NS(=O)(=O)C3CC3)cc2S(=O)(=O)[O-])c(S(=O)(=O)[O-])c1.[Na+].[Na+] [BB5-4, sodium (E)-5-acetamido-2-(4-(cyclopropanesulfonamido)-2-sulfonatostyryl)benzenesulfonate] | identified | 
CC(=O)Nc1ccc(/C=C/c2ccc(NS(=O)(=O)N(C)C)cc2S(=O)(=O)[O-])c(S(=O)(=O)[O-])c1.[Na+].[Na+] [BB5-6, sodium (E)-5-acetamido-2-(4-((N,N-dimethylsulfamoyl)amino)-2-sulfonatostyryl)benzenesulfonate] | identified | 
CC(C)S(=O)(=O)Nc1ccc(/C=C/c2ccc(N(C)C)cc2)cc1 [BB2-6, (E)-N-(4-(4-(dimethylamino)styryl)phenyl)propane-2-sulfonamide] | identified | 
CC(C)S(=O)(=O)Nc1ccc(/C=C/c2ccc(NC(=S)NC3CC3)cc2S(=O)(=O)[O-])c(S(=O)(=O)[O-])c1.[Na+].[Na+] [BB5-39, sodium (E)-5-(3-cyclopropylthioureido)-2-(4-(1-methylethylsulfonamido)-2-sulfonatostyryl)benzenesulfonate] | identified | 
CN(C)S(=O)(=O)Nc1ccc(/C=C/c2ccc(NS(=O)(=O)N(C)C)cc2)cc1 [BB1-7, (E)-N,N′-(ethene-1,2-diylbis(4,1-phenylene))bis(dimethylamino-sulfonamide)] | identified | 
CCNC(=O)Nc1ccc(/C=C/c2ccc(NC(=O)COC)cc2S(=O)(=O)[O-])c(S(=O)(=O)[O-])c1.[Na+].[Na+] [BB5-47, sodium (E)-5-(3-ethylureido)-2-(4-(2-methoxyacetamido)-2-sulfonatostyryl)benzenesulfonate] | identified | 
CC(C)S(=O)(=O)Nc1ccc(/C=C/c2ccc(NS(=O)(=O)C(C)C)cc2)cc1 [BB1-6, (E)-N,N′-(ethene-1,2-diylbis(4,1-phenylene))bis(propane-2-sulfonamide)] | identified | 
CCC(=O)c1ccc(Br)c([N+](=O)[O-])c1 [NS-123, 1-(4-bromo-3-nitrophenyl)propan-1-one] |  | viability of AID-null splenocytes ([2]; 5 μM NS-123, compared to untreated splenocytes): reduced; viability of AID-null splenocytes ([2]; 50 μM NS-123, activated with anti-CD40 plus IL-4): not viable; viability of AID-null splenocytes ([2]; 500 μM NS-123, activated with anti-CD40 plus IL-4): not viable; LD50 ([2]; AID-null splenocytes, activated with anti-CD40 plus IL-4): 14 µM; concentration enhancing tumor growth-inhibitory effects of ionizing radiation ([3]; U251, HT-29 and A549 tumor cells): ~5 µM; effect on normal cells and organisms ([3]; normal human glial cells, Zebrafish embryos and nude mice): no apparent effect
